Data as given in the CheMixHub viscosity set.
± gives the uncertainty stated by the source.

Experiment: xn = mol fraction of the nth substance listed

CCCCn1cc[n+](C)c1.F[P-](F)(F)(F)(F)F + ClC(Cl)Cl
Settings | viscosity [mPa·s]
298.15 K, 101 kPa, x2 = 0.0857 | 195

COCCOCCOCCOCCOC + ClC(Cl)Cl
298.15 K, 101 kPa
Settings | viscosity [mPa·s]
x1 = 0.0305 | 0.671 ± 0.006
x1 = 0.06 | 0.81 ± 0.008
x1 = 0.0813 | 0.921 ± 0.009
x1 = 0.118 | 1.124 ± 0.011
x1 = 0.1876 | 1.492 ± 0.016
x1 = 0.2354 | 1.766 ± 0.02
x1 = 0.2657 | 1.91 ± 0.023
x1 = 0.2957 | 2.04 ± 0.025
x1 = 0.35 | 2.276 ± 0.03
x1 = 0.4029 | 2.413 ± 0.034
x1 = 0.4429 | 2.521 ± 0.038
x1 = 0.5093 | 2.676 ± 0.043
x1 = 0.5445 | 2.745 ± 0.046
x1 = 0.6146 | 2.883 ± 0.052
x1 = 0.6452 | 2.925 ± 0.055
x1 = 0.7142 | 3.035 ± 0.061
x1 = 0.7593 | 3.083 ± 0.065
x1 = 0.8142 | 3.141 ± 0.069
x1 = 0.88 | 3.227 ± 0.075
x1 = 0.9225 | 3.252 ± 0.078

CC1=CCC(=C(C)C)CC1 + Clc1ccccc1
viscosity [mPa·s], 101 kPa
Settings | x1 = 0.0668 | x1 = 0.1386 | x1 = 0.2162 | x1 = 0.3003 | x1 = 0.3917 | x1 = 0.4913 | x1 = 0.6004 | x1 = 0.7203 | x1 = 0.8528
303.15 K | 0.729 ± 0.015 | 0.761 ± 0.017 | 0.798 ± 0.019 | 0.836 ± 0.022 | 0.874 ± 0.025 | 0.908 ± 0.029 | 0.934 ± 0.034 | 0.955 ± 0.04 | 0.974 ± 0.046
308.15 K | 0.692 ± 0.015 | 0.722 ± 0.016 | 0.756 ± 0.018 | 0.791 ± 0.02 | 0.826 ± 0.024 | 0.858 ± 0.028 | 0.881 ± 0.032 | 0.897 ± 0.037 | 0.913 ± 0.043
313.15 K | 0.649 ± 0.014 | 0.677 ± 0.015 | 0.709 ± 0.017 | 0.743 ± 0.019 | 0.775 ± 0.022 | 0.804 ± 0.026 | 0.825 ± 0.03 | 0.839 ± 0.035 | 0.853 ± 0.041

CC(F)(F)F + FC(F)C(F)(F)F
viscosity [mPa·s], 101 kPa
Settings | x1 = 0.248 | x1 = 0.5 | x1 = 0.759
298.15 K | 0.1286 ± 0.0029 | 0.1205 ± 0.0028 | 0.117 ± 0.0027
313.15 K | 0.1036 ± 0.0024 | – | –

CC(F)(F)F + FCC(F)(F)F
viscosity [mPa·s], 101 kPa
Settings | x2 = 0.247 | x2 = 0.5 | x2 = 0.743
298.15 K | 0.126 ± 0.0029 | 0.1447 ± 0.0032 | 0.1691 ± 0.0037
313.15 K | 0.105 ± 0.0024 | 0.1187 ± 0.0027 | 0.1358 ± 0.0031

CC1=CCC(=C(C)C)CC1 + Fc1ccccc1
viscosity [mPa·s], 101 kPa
Settings | x1 = 0.062 | x1 = 0.1294 | x1 = 0.2031 | x1 = 0.2839 | x1 = 0.3729 | x1 = 0.4714 | x1 = 0.5811 | x1 = 0.704 | x1 = 0.8425
303.15 K | 0.563 ± 0.012 | 0.61 ± 0.013 | 0.661 ± 0.015 | 0.715 ± 0.018 | 0.771 ± 0.022 | 0.824 ± 0.026 | 0.87 ± 0.031 | 0.912 ± 0.037 | 0.951 ± 0.045
308.15 K | 0.53 ± 0.011 | 0.572 ± 0.013 | 0.621 ± 0.015 | 0.672 ± 0.017 | 0.725 ± 0.02 | 0.774 ± 0.025 | 0.818 ± 0.029 | 0.855 ± 0.035 | 0.889 ± 0.042
313.15 K | 0.498 ± 0.011 | 0.536 ± 0.012 | 0.582 ± 0.014 | 0.631 ± 0.016 | 0.681 ± 0.019 | 0.727 ± 0.023 | 0.767 ± 0.028 | 0.8 ± 0.033 | 0.831 ± 0.039

CCCCn1cc[n+](C)c1.F[P-](F)(F)(F)(F)F + NCCO
viscosity [mPa·s], 101 kPa
Settings | x2 = 0.1185 | x2 = 0.2113 | x2 = 0.3052 | x2 = 0.4282 | x2 = 0.4918 | x2 = 0.6161 | x2 = 0.6984 | x2 = 0.8022 | x2 = 0.9028
293.15 K | – | 124.5 ± 50 | 102.5 ± 41 | 78.15 ± 31 | 68.3 ± 27 | 51.7 ± 21 | 43.55 ± 17 | 34.1 ± 14 | 27.33 ± 11
298.15 K | – | 92.28 ± 37 | 76.44 ± 31 | 58.74 ± 24 | 51.63 ± 21 | 39.18 ± 16 | 33.39 ± 13 | 26.29 ± 11 | –
303.15 K | – | – | 57.84 ± 23 | 44.92 ± 18 | 39.41 ± 16 | 30.4 ± 12 | 25.89 ± 10 | – | –
308.15 K | 67.48 ± 27 | 54.83 ± 22 | 44.08 ± 18 | 34.54 ± 14 | 30.31 ± 12 | – | – | – | –
313.15 K | – | 42.41 ± 17 | 34.89 ± 14 | 27.36 ± 11 | – | – | – | – | –
318.15 K | 42.44 ± 17 | 33.84 ± 14 | 28.14 ± 11 | – | – | – | – | – | 9.08 ± 3.6
323.15 K | 34.88 ± 14 | 28.08 ± 11 | – | – | – | – | – | 9.09 ± 3.6 | 7.67 ± 3.1

CCCCn1cc[n+](C)c1.F[P-](F)(F)(F)(F)F + O
298.15 K, 101 kPa
Settings | viscosity [mPa·s]
x2 = 0.0518 | 198
x2 = 0.2146 | 92.5 ± 24

C[N+](C)(C)CC(=O)O.[Cl-] + O
viscosity [mPa·s], 101 kPa
Settings | 293.15 K | 298.15 K | 303.15 K | 308.15 K | 313.15 K | 318.15 K
x1 = 0.000448 | 1.007 ± 0.021 | 0.8948 ± 0.019 | 0.8017 ± 0.017 | 0.7233 ± 0.015 | 0.6568 ± 0.014 | –
x1 = 0.000896 | 1.011 ± 0.022 | 0.8992 ± 0.019 | 0.8061 ± 0.017 | 0.7276 ± 0.015 | 0.661 ± 0.014 | 0.6055 ± 0.013
x1 = 0.00135 | 1.016 ± 0.022 | 0.9038 ± 0.019 | 0.8106 ± 0.017 | 0.7321 ± 0.016 | 0.6654 ± 0.014 | –
x1 = 0.0018 | 1.02 ± 0.022 | 0.9082 ± 0.019 | 0.815 ± 0.017 | 0.7365 ± 0.016 | 0.6697 ± 0.014 | 0.614 ± 0.013
x1 = 0.002247 | 1.025 ± 0.022 | 0.9126 ± 0.019 | 0.8193 ± 0.017 | 0.7408 ± 0.016 | 0.674 ± 0.014 | 0.6184 ± 0.013
x1 = 0.002691 | 1.029 ± 0.022 | 0.917 ± 0.019 | 0.8237 ± 0.017 | 0.7452 ± 0.016 | 0.6783 ± 0.014 | 0.6227 ± 0.013
x1 = 0.003581 | 1.038 ± 0.022 | 0.9259 ± 0.02 | 0.8324 ± 0.018 | 0.7539 ± 0.016 | 0.687 ± 0.015 | 0.6313 ± 0.013
x1 = 0.004484 | 1.048 ± 0.022 | 0.9348 ± 0.02 | 0.8413 ± 0.018 | 0.7627 ± 0.016 | 0.6956 ± 0.015 | 0.6401 ± 0.014
x1 = 0.005363 | 1.056 ± 0.023 | 0.9435 ± 0.02 | 0.85 ± 0.018 | 0.7712 ± 0.016 | 0.7043 ± 0.015 | 0.6486 ± 0.014
x1 = 0.006268 | 1.066 ± 0.023 | 0.9526 ± 0.02 | 0.859 ± 0.018 | 0.7799 ± 0.017 | 0.713 ± 0.015 | 0.6575 ± 0.014
x1 = 0.007163 | 1.075 ± 0.023 | 0.9616 ± 0.021 | 0.8677 ± 0.018 | 0.789 ± 0.017 | 0.7217 ± 0.015 | 0.6664 ± 0.014

C[NH+](C)CCO.O=C([O-])CCCC(=O)O + O
101 kPa, x2 = 0.89
Settings | viscosity [mPa·s]
298 K | 19.3
313 K | 11.8

[Na+].[O-][Cl+2]([O-])[O-] + O
viscosity [mPa·s], 100 kPa
Settings | x1 = 0.001798 | x1 = 0.003644 | x1 = 0.005393 | x1 = 0.007261 | x1 = 0.008945 | x1 = 0.01087 | x1 = 0.01261 | x1 = 0.01436 | x1 = 0.01582 | x1 = 0.01761
293.15 K | 0.996 ± 0.031 | 1.007 ± 0.031 | 1.017 ± 0.031 | 1.025 ± 0.032 | 1.033 ± 0.032 | 1.042 ± 0.032 | 1.05 ± 0.032 | 1.058 ± 0.033 | 1.067 ± 0.033 | 1.076 ± 0.033
298.15 K | 0.889 ± 0.027 | 0.897 ± 0.028 | 0.908 ± 0.028 | 0.918 ± 0.028 | 0.926 ± 0.029 | 0.933 ± 0.029 | 0.942 ± 0.029 | 0.949 ± 0.029 | 0.957 ± 0.03 | 0.965 ± 0.03
303.15 K | 0.801 ± 0.025 | 0.809 ± 0.025 | 0.817 ± 0.025 | 0.827 ± 0.026 | 0.835 ± 0.026 | 0.841 ± 0.026 | 0.849 ± 0.026 | 0.857 ± 0.026 | 0.865 ± 0.027 | 0.873 ± 0.027
308.15 K | 0.726 ± 0.022 | 0.734 ± 0.023 | 0.742 ± 0.023 | 0.75 ± 0.023 | 0.758 ± 0.023 | 0.765 ± 0.024 | 0.774 ± 0.024 | 0.781 ± 0.024 | 0.788 ± 0.024 | 0.796 ± 0.025
313.15 K | 0.663 ± 0.02 | 0.67 ± 0.021 | 0.678 ± 0.021 | 0.685 ± 0.021 | 0.693 ± 0.021 | 0.7 ± 0.022 | 0.708 ± 0.022 | 0.716 ± 0.022 | 0.723 ± 0.022 | 0.729 ± 0.023
318.15 K | 0.609 ± 0.019 | 0.616 ± 0.019 | 0.623 ± 0.019 | 0.631 ± 0.02 | 0.637 ± 0.02 | 0.643 ± 0.02 | 0.65 ± 0.02 | 0.657 ± 0.02 | 0.665 ± 0.021 | 0.672 ± 0.021
